Laboratory results as given in publication PMC5435703 (Scientific Reports, 2017).
≈ marks a conversion by molar mass, not a printed value. Like-named read-outs stand apart in the source and are kept apart here. Marks after values point to notes of the source that are not given here.

Legend:
S. epidermidis = test: MIC assays, S. epidermidis strains; assay type: cell-based; settings: Staphylococcus epidermidis; range over strains
MRSE 35984 [1] = test: MIC broth microdilution assay; assay type: cell-based, Staphylococcus epidermidis; settings: Staphylococcus epidermidis, MRSE
MRSA-1 = test: MIC broth microdilution assay; assay type: cell-based, Staphylococcus aureus; settings: Staphylococcus aureus, MRSA
MRSA BAA-1707 [2] = test: MIC assay with metal(II) cation co-treatment; assay type: cell-based, Staphylococcus aureus
[3] = Hemolysis assay with red blood cells; settings: human, pH 7.2
[4] = LDH release assay for HeLa cytotoxicity; assay type: cell-based; settings: human, HeLa cells; LDH release, 24 hours; tested at 25, 50 and 100 µM; read-out: HeLa Cytotox. IC50
MRSA-2 = test: MIC broth microdilution assay; assay type: cell-based, Staphylococcus aureus; settings: Staphylococcus aureus, MRSA; Table 1; read-out: MIC MRSA-2
MRSA BAA-1707 [5] = test: MIC broth microdilution assay; assay type: cell-based, Staphylococcus aureus; settings: for MIC: Staphylococcus aureus
MRSA-1707 biofilms = test: Live/Dead staining (fluorescence microscopy) of biofilms; settings: 0.1, 1 and 5 µM, 24 hours
Method: A mid-log culture of MRSA BAA-1707 was diluted 1:1,000-fold and 500 µL was transferred to each compartment of a 4 compartment CELLview dish (Greiner Bio-One 627871). The dish was then incubated for 24 hours at 37 °C. After this time, the cultures were removed and the plate was washed with 0.9% saline. The dish was then treated with the compounds in fresh media at various concentrations. DMSO was used as our negative control in this assay. The dish was incubated with the compound for 24 hours at 37 °C. After this time, the cultures were removed and the dish was washed with 0.9% saline for 2 minutes. Saline was then removed and 500 µL of the stain (Live/Dead BacLight Viability Kit, Invitrogen) were added for 15 minutes and left in the dark. After this time, the stain was removed and the dish was washed twice with 0.9% saline. Then the dish was fixed with 500 µL 4% paraformaldehyde in PBS for 30 minutes. Images of remaining MRSA biofilms were then taken with a fluorescence microscope. All data were analyzed using ImageJ software from three independent experiments.
E.) Live / Dead staining (Fluorescence Microscopy) of MRSA BAA-1707 Biofilms: […]
the cultures were removed and the dish was washed with 0.9% saline for 2 minutes. […] Images of remaining MRSA biofilms were then taken with a fluorescence microscope. All data were analyzed using Image J software from three

MRSA BAA-1707 [6] = test: Calgary Biofilm Device (CBD) MBC/MBEC assay; assay type: cell-based, Staphylococcus aureus
MRSA BAA-44 = test: MIC broth microdilution assay; assay type: cell-based; settings: Staphylococcus aureus
four MRSA isolates = test: MIC assays, panel of four MRSA isolates; assay type: cell-based; settings: Staphylococcus aureus, range over isolates, read-out: MIC against a panel of four MRSA isolates
MtB H37Ra = test: MIC assay for Mycobacterium tuberculosis; assay type: cell-based; settings: 168 h, seven days
S. epi 12228 = test: MIC broth microdilution assay; assay type: cell-based, Staphylococcus epidermidis; settings: Staphylococcus epidermidis, 12228; Table 1; read-out: MIC S. epi 12228
UV-Vis metal(II) binding = assay type: physicochemical; settings: UV-Vis kinetics, compared to HP 1
Method: The rates of halogenated phenazine-copper(II) complex formation were independently evaluated via UV-Vis spectrometry following addition of 0.5 equivalents copper(II) sulfate to stirring solutions of HP (10 mM, 4 mL) in dimethyl sulfoxide. Spectral scanning was performed from 200 to 800 nm in 2 nm increments. The disappearance of HPs 1, 17 and 22 was observed over the indicated time points. The halogenated phenazine-copper(II) complex formation yielded a loss in absorbance due to precipitation.

VRE 700221 [7] = test: Calgary Biofilm Device (CBD) MBC/MBEC assay; assay type: cell-based, Enterococcus faecium; settings: for MBC: read-out: VRE 700221 MBC
VRE 700221 [8] = test: MIC broth microdilution assay; assay type: cell-based, Enterococcus faecium; settings: Enterococcus, VRE
MRSE 35984 [9] = test: Calgary Biofilm Device (CBD) MBC/MBEC assay; assay type: cell-based, Staphylococcus epidermidis; settings: Staphylococcus epidermidis, MRSE
human red blood cells = settings: human, 1 h, pH 7.2
[10] = Table 3, read-out: MRSE 35984 MIC
[11] = Staphylococcus aureus, Fe(II) co-treatment plate, lanes without metal, read-out: MIC
[12] = Staphylococcus aureus, Table 2, MRSA BAA-1707, no metal(II) cation added, read-out: MIC
[13] = Staphylococcus aureus, Zn(II) extended plate assay, lanes without metal, read-out: MIC
[14] = Staphylococcus aureus, copper(II) at 200 µM co-treatment, read-out: MIC w/Cu2+
[15] = Staphylococcus aureus, iron(II) at 200 µM co-treatment, read-out: MIC w/Fe2+
[16] = Staphylococcus aureus, magnesium(II) at 200 µM co-treatment, read-out: MIC w/Mg2+
[17] = Staphylococcus aureus, zinc(II) at 200 µM co-treatment, read-out: MIC w/Zn2+
[18] = Table 3, read-out: MRSA BAA-1707 MIC
[19] = single plate shown as picture, read-out: MIC (µM), MIC Assay against MRSA BAA-1707
[20] = Staphylococcus aureus, 24 h, CBD, planktonic killing, 24 hours treatment, read-out: MRSA BAA-1707 MBC
[21] = Table 1, read-out: MIC MRSA BAA-44
[22] = Table 1, three independent experiments, read-out: MIC MRSA BAA-1707

| Compound | MIC (MRSE 35984 [1]; [10]) [µM] | MIC (MRSA-1; Table 1, read-out: MIC MRSA-1) [µM] | MIC (MRSA BAA-1707 [2]; [11]) [µM] | MIC (MRSA BAA-1707 [2]; [12]) [µM] | MIC (MRSA BAA-1707 [2]; [13]) [µM] | MIC (MRSA BAA-1707 [2]; [14]) [µM] | MIC (MRSA BAA-1707 [2]; [15]) [µM] | MIC (MRSA BAA-1707 [2]; [16]) [µM] | MIC (MRSA BAA-1707 [2]; [17]) [µM] | hemolysis at 1 h, 200 µM [3] [%] | IC50 at 24 h [4] [µM] | MIC (MRSA BAA-1707 [5]; [18]) [µM] | MIC (MRSA BAA-1707 [5]; [19]) [µM] | MBC (MRSA BAA-1707 [6]; [20]) [µM] | MIC (MRSA BAA-44; [21]) [µM] | MIC (four MRSA isolates) [µM] | MIC (MtB H37Ra) [µM] | rate of copper(II) chelation (UV-Vis metal(II) binding) | MIC (MRSA BAA-1707 [5]; [22]) [µM] | other results |
| --- | --- | --- | --- | --- | --- | --- | --- | --- | --- | --- | --- | --- | --- | --- | --- | --- | --- | --- | --- | --- |
| Cc1cccc2nc3c(O)c(Br)cc(Br)c3nc12 [HP 17, 6-methyl-2,4-dibromo-1-hydroxyphenazine] | 0.3 (≈ 0.11 µg/mL) | ≤ 0.1 | 0.39 | 0.3 | 0.2 | 75 | 12.5 | 0.3 | 0.05 | 6.7 | > 100 | 0.3 (≈ 0.11 µg/mL) | 0.2 (≈ 0.0736 µg/mL) | 6.25 (≈ 2.3 µg/mL) | 0.39 (≈ 0.144 µg/mL) | 0.05 to 0.59 (≈ 0.0184 to 0.217 µg/mL) | 25 (≈ 9.2 µg/mL) | faster rate than HP 1 | – | MIC (S. epidermidis): 0.3 to 0.39 µM (≈ 0.11 to 0.144 µg/mL); MIC (MRSA BAA-1707 [2]; Staphylococcus aureus, Cu(II) co-treatment plate, lanes without metal, read-out: MIC): 0.2 µM; MIC (MRSA BAA-1707 [2]; Staphylococcus aureus, Mg(II) co-treatment plate, lanes without metal, read-out: MIC): 0.2 µM; MIC (MRSA BAA-1707 [2]; Staphylococcus aureus, extended plate assay, 200 µM Zn(II), read-out: MIC (µM) + Zn(II)): 0.05 µM; MIC (MRSA BAA-1707 [2]; Staphylococcus aureus, single plate, 200 µM Fe(II), read-out: MIC (µM) + Fe(II)): 12.5 µM; MIC (MRSA BAA-1707 [2]; Staphylococcus aureus, single plate, 200 µM Mg(II), read-out: MIC (µM) + Mg(II)): 0.2 µM; MIC (MRSA BAA-1707 [2]; single plate, 200 µM Cu(II), read-out: MIC (µM) + Cu(II)): 50 µM; MIC (MRSA-2): 0.3 µM (≈ 0.11 µg/mL); Live/Dead staining response of established biofilms (MRSA-1707 biofilms): potent biofilm eradication and clearance response; MRSA BAA-1707 MBEC (MRSA BAA-1707 [6]; CBD, biofilm eradication, 24 hours treatment): 6.25/6.25 µM; MRSA-1707 Biofilm Eradication MBEC (MRSA BAA-1707 [6]; Figure 7A, single CBD plate): 6.25 µM; MBC (MRSA BAA-1707 [6]; Staphylococcus aureus, 24 h, supplement page 27, first CBD plate, read-out: MRSA Planktonic Killing MBC): 6.25 µM (≈ 2.3 µg/mL); MBC (MRSA BAA-1707 [6]; Staphylococcus aureus, Figure 7A, single CBD plate, read-out: MRSA-1707 Planktonic Eradication MBC): 6.25 µM (≈ 2.3 µg/mL); MIC (MRSA BAA-44; single plate shown as picture, read-out: MIC (µM), MIC Assay Against MRSA BAA-44): 0.39 µM (≈ 0.144 µg/mL); MIC (S. epi 12228): 0.39 µM (≈ 0.144 µg/mL) |
| Oc1c(Br)cc(Br)c2nc3c(Cl)cccc3nc12 [HP 21] | 0.3 (≈ 0.117 µg/mL) | ≤ 0.1 | 0.1 | 0.1 | 0.1 | 6.25 | 0.59 | 0.15 | 0.15 | ≤ 1 | > 100 | 0.08 (≈ 0.0311 µg/mL) | 0.1 (≈ 0.0388 µg/mL) | 6.25 (≈ 2.43 µg/mL) | 0.59 (≈ 0.229 µg/mL) | 0.05 to 0.59 (≈ 0.0194 to 0.229 µg/mL) | 50 (≈ 19.4 µg/mL) | faster rate than HP 1 | 0.05 to 0.3 (≈ 0.0194 to 0.117 µg/mL) | MIC (MRSE 35984 [1]; single plate shown as picture, read-out: MIC (µM), MIC Assay Against MRSE 35984): 0.2 µM (≈ 0.0777 µg/mL); MIC (MRSA-1; single plate shown as picture, read-out: MIC (µM), MIC Assay Against MRSA-1): 0.1 µM (≈ 0.0388 µg/mL); VRE 700221 MBEC (VRE 700221 [7]; CBD, biofilm eradication): 25/25 µM; MBC (VRE 700221 [7]; Enterococcus, VRE, CBD, planktonic killing): 25 µM (≈ 9.71 µg/mL); MIC (VRE 700221 [8]; Table 3, read-out: VRE 700221 MIC): 1.56 µM (≈ 0.606 µg/mL); MIC (VRE 700221 [8]; single plate shown as picture, read-out: MIC (µM), MIC Assay Against VRE 700221): 1.56 µM (≈ 0.606 µg/mL); MIC (MRSA BAA-1707 [2]; extended plate assay, 200 µM Zn(II), read-out: MIC (µM) + Zn(II)): 0.10 µM; MIC (MRSA BAA-1707 [2]; single plate, 200 µM Fe(II), read-out: MIC (µM) + Fe(II)): 0.78 µM; MIC MRSA BAA-1707 (MRSA BAA-1707 [5]; Table 1, three independent experiments): 0.08^a µM; MBC (MRSA BAA-1707 [6]; Staphylococcus aureus, 24 h, supplement page 27, second CBD plate, read-out: MRSA Planktonic Killing MBC): 6.25 µM (≈ 2.43 µg/mL) |
| O=C(O)CN(CCN(CC(=O)O)CC(=O)O)CC(=O)O [EDTA, ethylenediaminetetraacetic acid, reference compound] | – | 12.5 (≈ 3.65 µg/mL) | – | 25 | – | 50 | 50 | 50 | 50 | – | – | 25 (≈ 7.31 µg/mL) | – | – | – | – | – | – | 25 (≈ 7.31 µg/mL) | minimal effective concentration (VRE 700221 [7]; Enterococcus, VRE, 24 h, read-out: VRE 700221 MBEC): 93.8 µM; MBC (VRE 700221 [7]; Enterococcus, VRE): > 2000 µM; minimal effective concentration (MRSE 35984 [9]; 24 h, read-out: MRSE 35984 MBEC): > 2000 µM; MBC (MRSE 35984 [9]; read-out: MRSE 35984 MBC): 1000 µM (≈ 292 µg/mL); MBC (MRSA BAA-1707 [6]; Staphylococcus aureus, 24 h, read-out: MRSA BAA-1707 MBC): > 2000 µM; minimal effective concentration (MRSA BAA-1707 [6]; Staphylococcus aureus, 24 h, read-out: MRSA BAA-1707 MBEC): > 2000 µM; Hemolysis at 200 µM (%) (human red blood cells): ≤1% |
